Reference: ChEMBL document CHEMBL5212743, “Selectivity Literature for EUbOPEN Chemogenomics Library wave 3” (2023)
pKd: −log10 of the molar value. One block for each compound: values may come before it.

How the values were obtained:
[1] = biological target: Serine/threonine-protein kinase TAO1 (Homo sapiens) (UniProt Q7L7X3); experiment: Selectivity interaction (KinomeScan (DiscoverX)) EUB0000178b TAOK1; details: at 1 µM
[2] = biological target: Tyrosine-protein kinase ABL1 (Homo sapiens, UniProt P00519, T315I); experiment: Selectivity interaction (KinomeScan (DiscoverX, competition-binding assay)) EUB0000178b ABL1
[3] = biological target: Tyrosine-protein kinase ABL1 (Homo sapiens, UniProt P00519); details: at 1 µM
[4] = biological target: Platelet-derived growth factor receptor beta (Homo sapiens, UniProt P09619); experiment: Selectivity interaction (KinomeScan (DiscoverX)) EUB0000698a PDGFRB; details: at 10 µM
Chain of Platelet-derived growth factor receptor beta (P09619 whole entry): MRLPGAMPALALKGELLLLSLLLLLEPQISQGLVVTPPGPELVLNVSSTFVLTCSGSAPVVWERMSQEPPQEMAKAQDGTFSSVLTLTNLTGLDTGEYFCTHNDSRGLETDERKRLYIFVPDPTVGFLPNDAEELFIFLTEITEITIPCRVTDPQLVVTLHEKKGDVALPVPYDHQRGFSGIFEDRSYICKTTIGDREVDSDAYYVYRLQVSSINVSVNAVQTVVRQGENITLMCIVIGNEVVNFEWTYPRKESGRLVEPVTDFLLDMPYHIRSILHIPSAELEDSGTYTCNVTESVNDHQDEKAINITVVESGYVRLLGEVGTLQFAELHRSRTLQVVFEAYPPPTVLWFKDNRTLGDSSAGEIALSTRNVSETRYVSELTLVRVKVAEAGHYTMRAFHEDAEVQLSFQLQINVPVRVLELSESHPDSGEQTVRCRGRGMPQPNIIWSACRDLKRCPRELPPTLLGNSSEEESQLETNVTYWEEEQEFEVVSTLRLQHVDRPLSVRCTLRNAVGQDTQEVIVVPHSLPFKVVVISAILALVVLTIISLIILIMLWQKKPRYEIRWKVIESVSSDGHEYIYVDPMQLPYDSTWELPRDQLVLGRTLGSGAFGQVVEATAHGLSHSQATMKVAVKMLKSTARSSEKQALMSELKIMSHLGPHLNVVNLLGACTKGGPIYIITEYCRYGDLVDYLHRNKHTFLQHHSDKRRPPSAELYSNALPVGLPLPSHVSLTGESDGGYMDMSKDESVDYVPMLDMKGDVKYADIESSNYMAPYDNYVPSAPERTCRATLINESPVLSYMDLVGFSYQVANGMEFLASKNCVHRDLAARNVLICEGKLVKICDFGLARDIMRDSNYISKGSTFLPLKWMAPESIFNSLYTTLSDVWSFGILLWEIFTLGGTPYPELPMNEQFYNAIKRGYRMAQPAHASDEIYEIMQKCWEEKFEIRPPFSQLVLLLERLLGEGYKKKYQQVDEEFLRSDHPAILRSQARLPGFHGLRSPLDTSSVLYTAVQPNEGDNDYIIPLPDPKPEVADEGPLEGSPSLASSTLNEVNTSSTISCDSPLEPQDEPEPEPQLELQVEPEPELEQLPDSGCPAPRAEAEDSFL

[5] = biological target: T1, Ephrin type-B receptor 6 (Homo sapiens) (UniProt O15197); experiment: Selectivity interaction (KinomeScan (DiscoverX)) EUB0000698a EPHB6; details: at 10 µM
T1 sequence (whole entry): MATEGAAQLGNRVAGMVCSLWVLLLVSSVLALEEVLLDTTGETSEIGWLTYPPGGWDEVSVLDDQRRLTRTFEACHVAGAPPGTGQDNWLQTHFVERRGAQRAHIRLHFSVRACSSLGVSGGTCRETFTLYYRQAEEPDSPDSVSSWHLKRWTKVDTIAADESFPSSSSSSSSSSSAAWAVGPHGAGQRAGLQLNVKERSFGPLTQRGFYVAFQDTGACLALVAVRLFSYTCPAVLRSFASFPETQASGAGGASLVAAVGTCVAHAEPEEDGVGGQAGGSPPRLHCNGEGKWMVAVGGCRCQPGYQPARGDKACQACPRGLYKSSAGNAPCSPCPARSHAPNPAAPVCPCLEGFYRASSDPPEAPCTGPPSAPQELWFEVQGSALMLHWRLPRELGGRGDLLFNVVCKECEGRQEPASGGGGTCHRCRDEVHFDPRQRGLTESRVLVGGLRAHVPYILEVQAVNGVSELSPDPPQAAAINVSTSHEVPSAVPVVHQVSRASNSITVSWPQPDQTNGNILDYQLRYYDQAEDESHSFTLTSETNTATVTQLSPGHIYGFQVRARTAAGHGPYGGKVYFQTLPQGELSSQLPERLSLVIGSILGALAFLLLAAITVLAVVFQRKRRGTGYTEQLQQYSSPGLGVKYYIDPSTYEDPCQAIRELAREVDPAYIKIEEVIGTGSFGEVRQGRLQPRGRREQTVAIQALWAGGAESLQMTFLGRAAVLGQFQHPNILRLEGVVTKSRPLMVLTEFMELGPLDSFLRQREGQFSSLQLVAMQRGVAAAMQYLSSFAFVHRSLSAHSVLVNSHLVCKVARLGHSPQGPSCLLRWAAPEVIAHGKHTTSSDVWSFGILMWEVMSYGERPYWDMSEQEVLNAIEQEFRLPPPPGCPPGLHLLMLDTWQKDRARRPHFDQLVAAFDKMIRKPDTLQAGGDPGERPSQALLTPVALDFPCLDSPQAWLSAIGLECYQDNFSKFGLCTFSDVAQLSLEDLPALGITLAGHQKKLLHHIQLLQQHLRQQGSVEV

[6] = biological target: Serine/threonine-protein kinase 10 (Homo sapiens) (UniProt O94804); experiment: Selectivity interaction (KinomeScan (DiscoverX)) EUB0000698a STK10; details: at 10 µM
Chain of Serine/threonine-protein kinase 10 (Homo sapiens) (O94804 whole entry, looked up): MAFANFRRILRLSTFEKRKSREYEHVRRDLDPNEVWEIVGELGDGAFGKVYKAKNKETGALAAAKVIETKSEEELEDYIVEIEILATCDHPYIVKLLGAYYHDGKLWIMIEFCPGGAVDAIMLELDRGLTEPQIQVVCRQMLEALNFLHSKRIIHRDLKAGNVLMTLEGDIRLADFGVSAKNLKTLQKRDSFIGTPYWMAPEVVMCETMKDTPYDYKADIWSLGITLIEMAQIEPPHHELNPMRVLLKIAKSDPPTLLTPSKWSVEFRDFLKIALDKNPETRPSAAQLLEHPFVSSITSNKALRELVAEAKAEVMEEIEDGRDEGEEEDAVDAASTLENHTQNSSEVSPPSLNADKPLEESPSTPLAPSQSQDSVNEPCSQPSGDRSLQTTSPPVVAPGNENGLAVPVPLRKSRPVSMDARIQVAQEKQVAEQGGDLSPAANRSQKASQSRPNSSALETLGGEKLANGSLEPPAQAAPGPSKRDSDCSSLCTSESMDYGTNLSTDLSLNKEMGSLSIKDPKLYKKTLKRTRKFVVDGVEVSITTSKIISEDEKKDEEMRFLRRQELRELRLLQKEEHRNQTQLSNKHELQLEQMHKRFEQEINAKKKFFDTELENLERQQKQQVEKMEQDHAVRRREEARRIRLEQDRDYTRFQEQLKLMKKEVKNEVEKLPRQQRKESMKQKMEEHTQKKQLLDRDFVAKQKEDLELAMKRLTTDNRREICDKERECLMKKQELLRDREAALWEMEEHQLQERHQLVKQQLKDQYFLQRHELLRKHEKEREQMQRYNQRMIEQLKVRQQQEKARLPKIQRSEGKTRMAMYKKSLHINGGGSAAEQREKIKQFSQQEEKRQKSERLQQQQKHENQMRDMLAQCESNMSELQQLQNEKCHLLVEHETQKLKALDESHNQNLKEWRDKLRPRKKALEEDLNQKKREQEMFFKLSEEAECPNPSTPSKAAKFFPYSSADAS

[7] = biological target: Ribosomal protein S6 kinase beta-1 (Homo sapiens) (UniProt P23443); details: at 10 µM
Chain of Ribosomal protein S6 kinase beta-1 (Homo sapiens) (P23443 whole entry, looked up): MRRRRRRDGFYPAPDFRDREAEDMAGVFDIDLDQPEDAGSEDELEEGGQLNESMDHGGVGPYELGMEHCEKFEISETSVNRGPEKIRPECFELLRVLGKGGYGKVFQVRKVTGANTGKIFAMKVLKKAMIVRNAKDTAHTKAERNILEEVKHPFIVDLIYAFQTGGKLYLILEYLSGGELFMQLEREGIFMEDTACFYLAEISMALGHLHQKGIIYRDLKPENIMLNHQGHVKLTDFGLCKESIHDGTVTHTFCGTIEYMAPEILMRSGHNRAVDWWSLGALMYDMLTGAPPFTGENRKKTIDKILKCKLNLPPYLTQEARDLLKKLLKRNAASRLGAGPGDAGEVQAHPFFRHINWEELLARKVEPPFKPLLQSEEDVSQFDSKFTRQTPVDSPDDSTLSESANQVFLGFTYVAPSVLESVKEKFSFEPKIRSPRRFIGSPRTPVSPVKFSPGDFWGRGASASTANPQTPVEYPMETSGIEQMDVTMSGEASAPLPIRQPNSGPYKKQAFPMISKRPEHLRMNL

[8] = biological target: Serine/threonine-protein kinase ULK1 (Homo sapiens) (UniProt O75385); experiment: Selectivity interaction (KinomeScan (DiscoverX)) EUB0000702a ULK1; details: at 1 µM
Chain of Serine/threonine-protein kinase ULK1 (Homo sapiens) (O75385 whole entry): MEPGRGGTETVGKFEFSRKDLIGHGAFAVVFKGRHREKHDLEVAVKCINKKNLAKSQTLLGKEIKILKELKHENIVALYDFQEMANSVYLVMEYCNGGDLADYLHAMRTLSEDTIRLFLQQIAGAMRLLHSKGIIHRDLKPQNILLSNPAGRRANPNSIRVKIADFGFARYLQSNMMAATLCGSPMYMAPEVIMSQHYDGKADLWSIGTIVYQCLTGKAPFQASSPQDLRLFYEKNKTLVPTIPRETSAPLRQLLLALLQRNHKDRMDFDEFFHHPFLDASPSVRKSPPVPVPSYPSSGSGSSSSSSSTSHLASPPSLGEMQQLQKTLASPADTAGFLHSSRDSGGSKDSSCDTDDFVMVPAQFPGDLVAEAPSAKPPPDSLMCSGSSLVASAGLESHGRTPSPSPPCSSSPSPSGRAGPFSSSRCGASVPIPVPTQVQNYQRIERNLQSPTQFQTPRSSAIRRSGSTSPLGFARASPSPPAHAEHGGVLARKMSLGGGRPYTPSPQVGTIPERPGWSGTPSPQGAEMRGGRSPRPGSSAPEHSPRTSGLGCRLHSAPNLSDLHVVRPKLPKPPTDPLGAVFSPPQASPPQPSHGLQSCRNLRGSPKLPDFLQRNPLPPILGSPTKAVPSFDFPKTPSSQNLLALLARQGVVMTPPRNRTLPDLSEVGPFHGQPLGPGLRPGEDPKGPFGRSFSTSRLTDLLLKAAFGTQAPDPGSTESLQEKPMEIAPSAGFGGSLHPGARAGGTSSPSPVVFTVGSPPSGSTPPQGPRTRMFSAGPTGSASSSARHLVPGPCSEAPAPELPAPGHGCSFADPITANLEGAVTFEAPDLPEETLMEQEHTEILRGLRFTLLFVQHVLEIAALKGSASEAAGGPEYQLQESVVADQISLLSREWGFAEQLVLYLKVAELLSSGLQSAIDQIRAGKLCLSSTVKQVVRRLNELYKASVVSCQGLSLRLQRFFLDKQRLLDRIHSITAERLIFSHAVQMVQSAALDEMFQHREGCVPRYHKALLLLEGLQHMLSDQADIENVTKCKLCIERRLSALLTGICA

[9] = biological target: Serine/threonine-protein kinase WNK4 (Homo sapiens) (UniProt Q96J92); experiment: Selectivity interaction (KinomeScan (DiscoverX)) EUB0000702a WNK4; details: at 1 µM
[10] = biological target: Serine/threonine-protein kinase 17A (Homo sapiens) (UniProt Q9UEE5); experiment: Selectivity interaction (KinomeScan (DiscoverX)) EUB0000305b STK17A; details: at 100 nM
Chain of Serine/threonine-protein kinase 17A (Homo sapiens) (Q9UEE5 whole entry): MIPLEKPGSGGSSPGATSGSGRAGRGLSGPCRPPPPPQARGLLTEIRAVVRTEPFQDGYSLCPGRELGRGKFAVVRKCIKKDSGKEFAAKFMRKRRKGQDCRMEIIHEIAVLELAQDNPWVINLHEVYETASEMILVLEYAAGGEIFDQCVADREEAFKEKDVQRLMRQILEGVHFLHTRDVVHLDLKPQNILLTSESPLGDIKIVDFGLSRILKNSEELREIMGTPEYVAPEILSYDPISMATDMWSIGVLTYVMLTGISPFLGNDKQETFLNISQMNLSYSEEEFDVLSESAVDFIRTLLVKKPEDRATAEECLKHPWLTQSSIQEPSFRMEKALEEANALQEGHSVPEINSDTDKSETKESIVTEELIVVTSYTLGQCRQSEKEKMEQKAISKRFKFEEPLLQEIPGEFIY

Chain of Serine/threonine-protein kinase TAO1 (Homo sapiens) (Q7L7X3 whole entry): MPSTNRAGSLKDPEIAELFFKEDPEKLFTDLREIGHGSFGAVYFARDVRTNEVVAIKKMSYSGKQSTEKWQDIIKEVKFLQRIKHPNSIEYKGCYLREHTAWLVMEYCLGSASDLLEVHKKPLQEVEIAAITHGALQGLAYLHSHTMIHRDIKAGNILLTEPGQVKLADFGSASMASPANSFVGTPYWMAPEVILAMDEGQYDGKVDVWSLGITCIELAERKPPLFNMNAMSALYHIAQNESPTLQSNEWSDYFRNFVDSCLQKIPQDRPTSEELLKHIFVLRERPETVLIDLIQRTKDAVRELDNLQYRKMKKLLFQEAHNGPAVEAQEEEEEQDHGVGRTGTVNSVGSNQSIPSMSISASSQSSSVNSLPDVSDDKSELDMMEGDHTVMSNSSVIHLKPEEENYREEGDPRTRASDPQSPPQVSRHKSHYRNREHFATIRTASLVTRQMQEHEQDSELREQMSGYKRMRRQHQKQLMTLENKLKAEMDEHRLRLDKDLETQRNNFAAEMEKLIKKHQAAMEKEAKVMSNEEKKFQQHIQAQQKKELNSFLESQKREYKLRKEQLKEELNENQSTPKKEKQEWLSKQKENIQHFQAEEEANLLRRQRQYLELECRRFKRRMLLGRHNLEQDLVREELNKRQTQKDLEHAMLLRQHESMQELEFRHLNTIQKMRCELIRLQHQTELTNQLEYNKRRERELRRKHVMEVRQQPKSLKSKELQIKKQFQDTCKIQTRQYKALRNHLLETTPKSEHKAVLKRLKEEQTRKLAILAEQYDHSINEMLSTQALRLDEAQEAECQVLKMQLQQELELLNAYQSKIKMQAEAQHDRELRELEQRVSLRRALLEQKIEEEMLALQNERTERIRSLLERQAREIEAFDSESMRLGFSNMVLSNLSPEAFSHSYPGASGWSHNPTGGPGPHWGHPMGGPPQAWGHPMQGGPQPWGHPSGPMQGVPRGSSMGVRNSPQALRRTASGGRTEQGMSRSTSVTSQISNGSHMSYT

% of control [8]: 1.2% | % of control [9]: 0%
SMILES: CN(c1ccnc(CNc2nc(Nc3ccc4c(c3)CC(=O)N4)ncc2C(F)(F)F)n1)S(C)(=O)=O [PF-00911705]

% of control [10]: 40%
SMILES: C[C@H](c1ccnc(Nc2nc3ccc(-c4cc(N(C)C)ncn4)cc3[nH]2)c1)N1CCN(C(=O)CC(F)(F)F)CC1 [BAY-985]

The remaining lines, values behind:

SMILES: CN1C(=O)c2sccc2N(C)c2nc(Nc3ccc(S(N)(=O)=O)cc3)ncc21
% of control [1]: 2.6% | pKd [2]: 7.85

SMILES: CCOc1cn(-c2ccc(F)cc2C)nc1C(=O)Nc1ccc(Oc2ccnc3cc(OC)c(OC)cc23)c(F)c1
% of control [3]: < 10%

SMILES: COc1cc2ncn(-c3cc(OCc4ccccc4C(F)(F)F)c(C(N)=O)s3)c2cc1OC [GW843682X]
% of control [4]: 5.3% | % of control [5]: 9.9% | % of control [6]: 0%

SMILES: CC[C@@H]1C(=O)N(C)c2cnc(Nc3ccc(C(=O)NC4CCN(C)CC4)cc3OC)nc2N1C1CCCC1
% of control [7]: 102%
